Measured values taken from patent US7361758B2, “Crystals of triazaspiro[5.5]undecane derivative” (Ono Pharmaceutical Co., Ltd., priority 2002, dated 2008).

How the values were obtained:
[1] = system: rats; settings: rat, in vivo, 2000 mg/kg
Experimental: Thus, the inventive compound is determined as sufficiently safe for medical use.

[2] = target: interaction between chemokine and a chemokine receptor (Homo sapiens, UniProt P51681); assay: antagonistic activity against the interaction between chemokine and a chemokine receptor (method described in WO 01/40227); assay type: biochemical; settings: compared with the amorphous substance produced by the method of WO 02/074770
Sequence of interaction between chemokine and a chemokine receptor (P51681 whole entry): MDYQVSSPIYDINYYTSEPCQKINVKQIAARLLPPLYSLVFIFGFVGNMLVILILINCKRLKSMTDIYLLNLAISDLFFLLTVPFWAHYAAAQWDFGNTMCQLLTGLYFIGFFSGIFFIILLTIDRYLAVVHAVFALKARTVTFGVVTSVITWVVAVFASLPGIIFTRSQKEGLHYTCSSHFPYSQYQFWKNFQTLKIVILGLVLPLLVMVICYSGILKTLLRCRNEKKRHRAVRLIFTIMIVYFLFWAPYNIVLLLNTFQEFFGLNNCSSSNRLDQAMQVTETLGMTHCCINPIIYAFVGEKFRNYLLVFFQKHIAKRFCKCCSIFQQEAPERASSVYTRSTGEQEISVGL

In the case of `CCCCN1C(=O)[C@@H]([C@H](O)C2CCCCC2)NC(=O)C12CCN(Cc1ccc(Oc3ccc(C(=O)O)cc3)cc1)CC2.Cl` [Crystal A, (3R)-1-butyl-2,5-dioxo-3-[(1R)-1-hydroxy-1-cyclohexylmethyl]-9-[4-(4-carboxyphenyloxy)phenylmethyl]-1,4,9-triazaspiro[5.5]undecane Hydrochloride], the toxicity [1] is reported as “never showed distinct toxicity” and the “antagonistic activity against the interaction between chemokine and a chemokine receptor” value [2] is reported as “almost the same level as that of the amorphous substance”.
